The assay concerns the target T1, 14-3-3γ/PKR complex (Homo sapiens, UniProt P61981).
T1 construct: made in house; host or cells: E. coli NiCo21 (DE3)
T1 sequence (P61981 1-247): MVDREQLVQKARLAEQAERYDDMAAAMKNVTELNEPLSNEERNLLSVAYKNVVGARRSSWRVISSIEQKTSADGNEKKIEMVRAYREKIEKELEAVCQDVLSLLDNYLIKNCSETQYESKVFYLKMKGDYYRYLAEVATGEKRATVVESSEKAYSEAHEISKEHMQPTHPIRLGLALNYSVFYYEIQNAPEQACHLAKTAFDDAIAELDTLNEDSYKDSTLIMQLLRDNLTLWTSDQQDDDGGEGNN
The assay is described as follows: FA / TD-FA selectivity screen, PKR client peptide. In kind it is binding. Particulars: 100 μM compound. How it is done:
Drugging the hub protein 14-3-3 raises the challenge of selectivity, given that 14-3-3 binds several hundred phosphoprotein partners (Figure 4a).[54] We hypothesized that the interplay of chemical reactivity, the topology, and functionality of the composite binding pocket shaped by 14-3-3 and the interaction partner drives selective stabilization of the 14-3-3/ERRγ complex.[53] To validate selectivity, molecular locks 5 and 10 were tested against a panel of nine 14-3-3 client peptides in an FA assay, and the SF100 was determined for each 14-3-3 PPI (Figure 4b and Figures S18–S20). This client panel contained a diverse representation of 14-3-3 binding proteins, differing for example in size and hydrophobicity of the +1 amino acid. Importantly, clients PKR and RND3, each containing a +1 Cys, were included in the panel.
To further assess off-target reactivity to +1 Cys-containing peptides, fragment 1, locks 5 and 10 were also screened against PKR and RND3 in the TD-FA assay.
Figure S20. KD and SF100 plot – selectivity screen. […]
nine different client peptides in presence of DMSO (negative control) or 100 µM of compound 1, 5 or 10 (based on binding curves in Figure S19). Also a bar plot representation of stabilization factor (SF100) of compounds 1, 5 and 10 for each of these peptides (bottom plot).
(1 picture or pasted object on this page, not shown here)
Experimental Section Biophysical Assays
14-3-3γ protein expression (FA, TSA, MS assays)
A pPROEX HTb expression vector encoding the human 14-3-3 protein gamma (14-3-3γ) with a N-terminal his6-tag was transformed by heat shock into NiCo21 (DE3) competent cells. Single colonies were cultured in 50 mL LB medium (100 µg/mL ampicillin). After overnight incubation at 37 °C, cultures were transferred to 2 L TB media (100 µg/mL ampicillin, 1 mM MgCl2) and incubated at 37 °C until an OD600 nm of 0.8 -1.2 was reached. […] Finally, the protein was concentrated to ∼60 mg/mL, analyzed Q-Tof LC/MS, and aliquots were flash-frozen for storage at −80 °C. […]

Take `CN(C)CCSSCCN(C)C(=O)c1cc(Br)cc(C=O)c1` [compound 10]: the “stabilization of the PKR complex” value was “no stabilization”.

With `CN(C)CCSSCCN(C)C(=O)c1cccc(F)c1` [compound 1, reference compound], the “stabilization of the PKR complex” value is on record as “no stabilization”.

For `CN(C)CCSSCCN(C)C(=O)c1ccc(C=O)c(F)c1` [compound 5], the “stabilization of the PKR complex” value is “no stabilization”.
